Measured values reported in patent US20240270762A1, “PENICILLIN-BINDING PROTEIN INHIBITORS” (priority 2021, published 2024).
In brackets after ≈: the same amount, converted by molar mass.

Columns and labels:
[1] = molecular target: T1, PBP3 from Acinetobacter baumannii (ATCC 19606) (Acinetobacter baumannii, UniProt A0ABX6CK25); test: Bocillin-FL fluorescence polarization competition binding, A. baumannii PBP3; conditions: fluorescence polarization competition binding assay using Bocillin-FL; read-out: A. baumannii PBP3 Potency
T1 sequence (A0ABX6CK25 64-610): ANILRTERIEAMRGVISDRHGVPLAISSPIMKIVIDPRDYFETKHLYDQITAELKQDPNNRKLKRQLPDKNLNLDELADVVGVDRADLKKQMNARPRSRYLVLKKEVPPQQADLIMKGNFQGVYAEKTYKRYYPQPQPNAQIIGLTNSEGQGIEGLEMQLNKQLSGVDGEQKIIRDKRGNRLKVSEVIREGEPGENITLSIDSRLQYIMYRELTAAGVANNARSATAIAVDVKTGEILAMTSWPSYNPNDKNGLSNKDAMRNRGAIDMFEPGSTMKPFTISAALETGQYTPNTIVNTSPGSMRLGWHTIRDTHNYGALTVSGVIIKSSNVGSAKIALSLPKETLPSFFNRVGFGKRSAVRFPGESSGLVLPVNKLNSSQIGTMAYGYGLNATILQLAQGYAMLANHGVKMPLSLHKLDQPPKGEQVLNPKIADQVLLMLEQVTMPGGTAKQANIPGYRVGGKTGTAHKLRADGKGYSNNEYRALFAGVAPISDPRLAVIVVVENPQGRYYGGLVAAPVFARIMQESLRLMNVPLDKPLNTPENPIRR
Outline: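 Purified PBP was preincubated with inhibitor (E. coli PBP3 1.5 μM, 30 min; P. aeruginosa PBP3 0.75 μM, A. baumannii PBP3 0.2 μM and PBP1a 1 μM, 15 min), then Bocillin-FL (0.1 μM; 0.05 μM for PBP1a) added and FP read up to 60 min. EC50 = 50% loss of bound probe.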

[2] = system: B. humptydooensis ATCC BAA-2767; test: microbe, parasite or virus in culture; type: cell-based; conditions: Burkholderia humptydooensis, ATCCBAA2767, read-out: Minimum inhibitory concentration (MIC), B. humptydooensis ATCC BAA-2767
A. baumannii ATCC 17978 = test: microbe, parasite or virus in culture; type: cell-based; conditions: Acinetobacter baumannii, ATCC17978, read-out: MIC, A. baumannii ATCC 17978
A. baumannii ATCC 19606 = test: microbe, parasite or virus in culture; type: cell-based; conditions: Acinetobacter baumannii, ATCC19606, read-out: MIC, A. baumannii ATCC 19606
P. aeruginosa ATCC 35151 = test: microbe, parasite or virus in culture; type: cell-based; conditions: Pseudomonas aeruginosa, ATCC35151, read-out: Minimum inhibitory concentration, P. aeruginosa ATCC 35151

Compound	IC50 [1]	MIC [2]	MIC (A. baumannii ATCC 17978)	MIC (A. baumannii ATCC 19606)	MIC (P. aeruginosa ATCC 35151)
O=C(NCCCN1CCN(C(=O)NC(C(=O)N[C@H]2Cc3ccc(F)c(C(=O)O)c3OB2O)c2cc(F)c(O)c(O)c2Cl)C(=O)C1=O)c1cc(O)ccc1F (stereo partly drawn) [Example 407, (3R)-3-(2-(2-chloro-5-fluoro-3,4-dihydroxyphenyl)-2-(4-(3-(2-fluoro-5-hydroxybenzamido)propyl)-2,3-dioxopiperazine-1-carboxamido)acetamido)-7-fluoro-2-hydroxy-3,4-dihydro-2H-benzo[e][1,2]oxaborinine-8-carboxylic acid]	< 10 µM	8 to 16 µg/mL (≈ 10.3 to 20.6 µM)	< 1 µg/mL	< 1 µg/mL	< 1 µg/mL
O=C(NCCCN1CCN(C(=O)NC(C(=O)N[C@H]2Cc3ccc(F)c(C(=O)O)c3OB2O)c2cc(F)c(O)c(O)c2Cl)C(=O)C1=O)c1cc(O)ccc1Cl (stereo partly drawn) [Example 408, (3R)-3-(2-(2-chloro-5-fluoro-3,4-dihydroxyphenyl)-2-(4-(3-(2-chloro-5-hydroxybenzamido)propyl)-2,3-dioxopiperazine-1-carboxamido)acetamido)-7-fluoro-2-hydroxy-3,4-dihydro-2H-benzo[e][1,2]oxaborinine-8-carboxylic acid]	< 10 µM	8 to 16 µg/mL (≈ 10.1 to 20.1 µM)	< 1 µg/mL	< 1 µg/mL	< 1 µg/mL
O=C(NCCCN1CCN(C(=O)NC(C(=O)N[C@H]2Cc3ccc(F)c(C(=O)O)c3OB2O)c2cc(F)c(O)c(O)c2Cl)C(=O)C1=O)c1ccc(F)c(O)c1 (stereo partly drawn) [Example 409, (3R)-3-(2-(2-chloro-5-fluoro-3,4-dihydroxyphenyl)-2-(4-(3-(4-fluoro-3-hydroxybenzamido)propyl)-2,3-dioxopiperazine-1-carboxamido)acetamido)-7-fluoro-2-hydroxy-3,4-dihydro-2H-benzo[e][1,2]oxaborinine-8-carboxylic acid]	< 10 µM	8 to 16 µg/mL (≈ 10.3 to 20.6 µM)	< 1 µg/mL	< 1 µg/mL	< 1 µg/mL
O=C(NCCCN1CCN(C(=O)NC(C(=O)N[C@H]2Cc3ccc(F)c(C(=O)O)c3OB2O)c2cc(F)c(O)c(O)c2Cl)C(=O)C1=O)c1cc(O)cc(F)c1 (stereo partly drawn) [Example 410, (3R)-3-(2-(2-chloro-5-fluoro-3,4-dihydroxyphenyl)-2-(4-(3-(3-fluoro-5-hydroxybenzamido)propyl)-2,3-dioxopiperazine-1-carboxamido)acetamido)-7-fluoro-2-hydroxy-3,4-dihydro-2H-benzo[e][1,2]oxaborinine-8-carboxylic acid]	< 10 µM	> 128 µg/mL	< 1 µg/mL	< 1 µg/mL	< 1 µg/mL
O=C(NCCCN1CCN(C(=O)NC(C(=O)N[C@H]2Cc3ccc(F)c(C(=O)O)c3OB2O)c2cc(F)c(O)c(O)c2Cl)C(=O)C1=O)c1ccc(F)c(O)c1F (stereo partly drawn) [Example 411, (3R)-3-(2-(2-chloro-5-fluoro-3,4-dihydroxyphenyl)-2-(4-(3-(2,4-difluoro-3-hydroxybenzamido)propyl)-2,3-dioxopiperazine-1-carboxamido)acetamido)-7-fluoro-2-hydroxy-3,4-dihydro-2H-benzo[e][1,2]oxaborinine-8-carboxylic acid]	< 10 µM	2 to 4 µg/mL (≈ 2.51 to 5.03 µM)	< 1 µg/mL	< 1 µg/mL	< 1 µg/mL
O=C(NCCCN1CCN(C(=O)NC(C(=O)N[C@H]2Cc3ccc(F)c(C(=O)O)c3OB2O)c2cc(F)c(O)c(O)c2Cl)C(=O)C1=O)c1ccc(F)c(O)c1Cl (stereo partly drawn) [Example 412, (3R)-3-(2-(4-(3-(2-chloro-4-fluoro-3-hydroxybenzamido)propyl)-2,3-dioxopiperazine-1-carboxamido)-2-(2-chloro-5-fluoro-3,4-dihydroxyphenyl)acetamido)-7-fluoro-2-hydroxy-3,4-dihydro-2H-benzo[e][1,2]oxaborinine-8-carboxylic acid]	< 10 µM	2 to 4 µg/mL (≈ 2.46 to 4.92 µM)	< 1 µg/mL	< 1 µg/mL	< 1 µg/mL
